# Data: publication PMC5760531, “Action Potential Recording and Pro-arrhythmia Risk Analysis in Human Ventricular Trabeculae” (Frontiers in Physiology, 2018)
# Where “and” joins values, the source holds several entries; their conditions need not be identical. Equal entries are not always repeated.
# Experiments:
# [1] = test system: human ventricular trabeculae; assay: Action potential recording and pro-arrhythmic score analysis in human ventricular trabeculae (hVT); details: for EAD induction: any testing concentration, 1 and 2 Hz;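 for all read-outs here: sharp microelectrode action potential recordings at 37°C in Tyrode-perfused trabeculae, 4 cumulative concentrations each applied 31 min, values averaged over last 30 APs, vehicle 0.1% DMSO as control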
# [2] = human free (unbound) effective therapeutic plasma concentration used to calculate multiples; cited from earlier work
# [3] = 1Hz, c1-c4: 0.4-, 1.3-, 13-, 43-FOLD free ETPC (2.3µM)
# [4] = 2Hz, c1-c4: 0.4-, 1.3-, 13-, 43-FOLD free ETPC (2.3µM)
# [5] = average raw data, 1Hz, c2-c5: 0.4-, 1.3-, 13-, 43-FOLD free ETPC (2.3µM)
# [6] = average raw data, 2Hz, c2-c5: 0.4-, 1.3-, 13-, 43-FOLD free ETPC (2.3µM)
# [7] = 1Hz, c1-c4: 2-FOLD, 21-FOLD, 69-OLD, 207-FOLD free ETPC (0.145µM)
# [8] = 2Hz, c1-c4: 2-FOLD, 21-FOLD, 69-OLD, 207-FOLD free ETPC (0.145µM)
# [9] = average raw data, 1Hz, c2-c5: 2-FOLD, 21-FOLD, 69-OLD, 207-FOLD free ETPC (0.145µM)
# [10] = average raw data, 2Hz, c2-c5: 2-FOLD, 21-FOLD, 69-OLD, 207-FOLD free ETPC (0.145µM)
# [11] = initial 3 testing concentrations
# [12] = 1Hz, c1-c4: 25-, 75-, 250-, 2500-FOLD free ETPC (0.0004µM)
# [13] = 2Hz, c1-c4: 25-, 75-, 250-, 2500-FOLD free ETPC (0.0004µM)
# [14] = average raw data, 1Hz, c2-c5: 25-, 75-, 250-, 2500-FOLD free ETPC (0.0004µM)
# [15] = average raw data, 2Hz, c2-c5: 25-, 75-, 250-, 2500-FOLD free ETPC (0.0004µM)
compound,measurement,setting,value
"COc1ccccc1OCC(O)CN1CCN(CC(=O)Nc2c(C)cccc2C)CC1 (stereo not shown) [RANOLAZINE, Ranolazine]",EADs incidence,[1]; [3],0%
same,Refractoriness Escape incidence,[1]; [3],0%
same,EADs incidence,[1]; [4],0%
same,Refractoriness Escape incidence,[1]; [4],0%
same,AMAX,[1]; [5],112 mV and 111 mV and 113 mV and 109 mV
same,APD30,[1]; [5],146 ms and 136 ms and 126 ms and 116 ms
same,APD50,[1]; [5],198 ms and 187 ms and 181 ms and 170 ms
same,APD90,[1]; [5],266 ms and 257 ms and 274 ms and 294 ms
same,Alternans,[1]; [5],0.34 and 0.37 and 0.39
same,EADs,[1]; [5],0
same,ERP,[1]; [5],0.47 and 0.48 and 0.50 and 0.49
same,Max Dispersion,[1]; [5],1.65 and 1.42 and 1.45 and 1.75
same,Refractoriness Escape,[1]; [5],0
same,STV,[1]; [5],0.22 and 0.27 and 0.29 and 0.24
same,Triangulation,[1]; [5],121 and 148 and 178
same,AMAX,[1]; [6],111 mV and 105 mV
same,APD30,[1]; [6],108 ms and 102 ms and 99 ms and 104 ms
same,APD50,[1]; [6],151 ms and 144 ms and 143 ms
same,APD90,[1]; [6],215 ms and 210 ms and 230 ms and 275 ms
same,EADs,[1]; [6],0
same,ERP,[1]; [6],0.48 and 0.49 and 0.47
same,Refractoriness Escape,[1]; [6],0
same,Triangulation,[1]; [6],107 and 108 and 131 and 172
same,Free ETPC,[2],2.3 µM
"CC(CC(c1ccccc1)c1ccccc1)NC(C)(C)C (stereo not shown) [TERODILINE, Terodiline]",EADs incidence,[1]; [7],0%
same,Refractoriness Escape incidence,[1]; [7],0%
same,EADs incidence,[1]; [8],0%
same,Refractoriness Escape incidence,[1]; [8],0%
same,STV,"[1]; 2 Hz, first concentration",0.9
same,STV,"[1]; 2 Hz, third concentration",2.2
same,STV increase,"[1]; 2 Hz, third versus first concentration",144%
same,EAD induction,[1],did not induce EAD
same,AMAX,[1]; [9],111 mV and 110 mV and 108 mV and 102 mV
same,APD30,[1]; [9],151 ms and 142 ms and 126 ms and 113 ms
same,APD50,[1]; [9],200 ms and 192 ms and 178 ms and 164 ms
same,APD90,[1]; [9],270 ms and 268 ms and 293 ms
same,Beat Escape,[1]; [9],1
same,EADs,[1]; [9],0
same,ERP,[1]; [9],0.44 and 0.45 and 0.48 and 0.49
same,Refractoriness Escape,[1]; [9],0
same,Triangulation,[1]; [9],119 and 126 and 144 and 180
same,AMAX,[1]; [10],109 mV and 108 mV and 106 mV and 100 mV
same,APD30,[1]; [10],115 ms and 108 ms and 100 ms and 104 ms
same,APD50,[1]; [10],157 ms and 150 ms and 140 ms and 151 ms
same,APD90,[1]; [10],225 ms and 223 ms and 228 ms and 276 ms
same,Beat Escape,[1]; [10],1
same,EADs,[1]; [10],0
same,ERP,[1]; [10],0.45 and 0.47 and 0.48
same,Refractoriness Escape,[1]; [10],0
same,Triangulation,[1]; [10],110 and 115 and 128 and 172
same,effect on amplitude of AP,[1]; especially at 30 μM,decreased the amplitude of AP
same,change in APD90,[1]; [11],less than 10%
same,change in triangulation,[1]; [11],≥ 20%
same,Free ETPC,[2],0.145 µM
"Cc1ccc(O)c([C@H](CCN(C(C)C)C(C)C)c2ccccc2)c1 [TOLTERODINE, Tolterodine]",Beat Escape incidence,[1]; [12],0%
same,EADs incidence,[1]; [12],0%
same,Refractoriness Escape incidence,[1]; [12],0%
same,Beat Escape incidence,[1]; [13],0%
same,EADs incidence,[1]; [13],0%
same,Refractoriness Escape incidence,[1]; [13],0%
same,EAD induction,[1],did not induce EAD
same,AMAX,[1]; [14],110 mV and 113 mV and 107 mV and 112 mV
same,APD30,[1]; [14],186 ms and 190 ms and 192 ms and 195 ms
same,APD50,[1]; [14],248 ms and 256 ms and 279 ms and 294 ms
same,APD90,[1]; [14],320 ms and 331 ms and 378 ms and 411 ms
same,Alternans,[1]; [14],0.39 and 0.41 and 0.53 and 0.63
same,Beat Escape,[1]; [14],0
same,EADs,[1]; [14],0
same,ERP,[1]; [14],0.46 and 0.47 and 0.53 and 0.55
same,Max Dispersion,[1]; [14],2.33 and 1.97 and 2.80 and 2.90
same,Refractoriness Escape,[1]; [14],0
same,STV,[1]; [14],0.32 and 0.28 and 0.38 and 0.40
same,Triangulation,[1]; [14],134 and 141 and 186 and 215
same,AMAX,[1]; [15],107 mV and 113 mV and 106 mV
same,APD30,[1]; [15],131 ms and 143 ms and 136 ms and 134 ms
same,APD50,[1]; [15],184 ms and 197 ms and 203 ms and 210 ms
same,APD90,[1]; [15],254 ms and 268 ms and 299 ms and 327 ms
same,Beat Escape,[1]; [15],0
same,EADs,[1]; [15],0
same,ERP,[1]; [15],0.49 and 0.48 and 0.54 and 0.56
same,Max Dispersion,[1]; [15],2.38 and 2.93 and 4.08 and 4.05
same,Refractoriness Escape,[1]; [15],0
same,Triangulation,[1]; [15],123 and 126 and 163 and 193
same,effect on amplitude of AP,"[1]; up to the highest testing concentration, 1 μM",negligible effects
same,Free ETPC,[2],0.0004 µM
